# Laboratory results from US20250144067A1, “PERSONALIZED STARVATION THERAPY FOR CANCER” (Faeth Therapeutics, Inc., priority 2021, published 2025).
# Counter-ions that a name gives are not always drawn. Like-named read-outs stand apart in the source and are kept apart here. Ends that are not written are not given here.
# Columns and labels:
# Assay type in all cases: cell-based, human
# [1] = system: NCI-H292 lung cancer cells; assay: FDA drug screening, complete media vs cholesterol-free media without statin (TABLE 1)
# [2] = system: NCI-H292 lung cancer cells; assay: FDA drug screening, complete media vs cholesterol-free media with simvastatin (TABLE 2)
# [3] = system: cancer cell lines; assay: Drug validation in multiple cancer cell lines, four media conditions; details: cholesterol-free media compared to complete media
# Protocol: (§1) A series of experiments were designed to assess the effect of cholesterol depletion and statin treatment on the anti-cancer effect of drugs identified in the FDA drug screens. Cancer cells were grown in media containing cholesterol and cholesterol-free media in the presence or absence of simvastatin. The effect of the drug identified in the FDA drug screens on cancer cell growth was measured.
# […]. Medium 1 was ‘complete medium’ containing all essential nutrients, including cholesterol. Medium 2 was cholesterol-free medium. Medium 3 was cholesterol-free medium supplemented with simvastatin 40 nM. […]
# On Day 5, cell growth was measured by absorbance or fluorescence. For absorbance growth measurements, spent media was discarded, and wells were stained with a crystal violet staining solution, washed, and dried. […] Plates were read using a Biotek Powerwave plate reader to determine the absorbance of the crystal violet released as an indicator of cell growth at a wavelength of 595 nm. For fluorescence growth measurements, 100 μL of a resazurin solution was added to each well and the plate incubated at 37° C. for four hours. Plates were read using a Biotek Powerwave plate reader to determine the fluorescence of reosurfin as an indicator of cell growth at a wavelength of 590 nm. […]
# [4] = system: H292 cells; assay: Drug validation, four media conditions; details: cholesterol-free medium+simvastatin compared to the other media conditions
# Protocol: as §1
# (§2) […]. Medium 1 was ‘complete medium’ containing all essential nutrients, including cholesterol. Medium 2 was cholesterol-free medium. Medium 3 was cholesterol-free medium supplemented with simvastatin 40 nM. Medium 4 was ‘complete medium’ containing all essential nutrients, including cholesterol, supplemented with simvastatin at the IC30 concentration for each cell line.
# (§3) On Day 5, cell growth was measured by absorbance or fluorescence. For absorbance growth measurements, spent media was discarded, and wells were stained with a crystal violet staining solution, washed, and dried. 100 μL of 10% acetic acid was added to each well to release the crystal violet taken up by the cells. Plates were read using a Biotek Powerwave plate reader to determine the absorbance of the crystal violet released as an indicator of cell growth at a wavelength of 595 nm. For fluorescence growth measurements, 100 μL of a resazurin solution was added to each well and the plate incubated at 37° C. for four hours. Plates were read using a Biotek Powerwave plate reader to determine the fluorescence of reosurfin as an indicator of cell growth at a wavelength of 590 nm.
# (§4) Growth curves showing absorbance of crystal violet at 595 nm or fluorescene of reosurfin at 590 nm were plotted from test wells against the logarithmic concentration of the validation drug. FIG. 9A-9C show growth of cancer cell lines in the four media conditions subjected to increasing doses of neticonazole. FIG. 10A-10D show growth of cancer cell lines in the four media conditions subjected to increasing doses of cepharanthine. FIG. 11A-11B show growth of cancer cell lines in the four media conditions subjected to increasing doses of alverine citrate. FIG. 12A-12B show growth of cancer cell lines in the four media conditions subjected to increasing doses of berbamine. FIG. 13A-13C show growth of cancer cell lines in the four media conditions subjected to increasing doses of pitolisant. FIG. 14A-14G show growth of cancer cell lines in the four media conditions subjected to increasing doses of avapritinib. FIG. 15A-15D show growth of cancer cell lines in the four media conditions subjected to increasing doses of toremifene. FIG. 16A-16C show growth of cancer cell lines in the four media conditions subjected to increasing doses of isavuconazole.
# [5] = system: PATU8901 cells; assay: Drug validation, four media conditions; details: cholesterol-free media with simvastatin
# Protocol: as §1, §2, §3, §4
# [6] = system: PSN1 cells; assay: Drug validation, four media conditions; details: for anti-proliferative effect (dose-response curve shift): cholesterol-free medium+simvastatin compared to the other media conditions
# Protocol: as §1, §2, §3, §4
# [7] = system: SW480 cells; assay: Drug validation, four media conditions
# Protocol: as §1, §2, §3, §4
# [8] = system: H292 cells; assay: Drug validation in H292 cells, three media conditions; details: cholesterol-free medium + simvastatin 40 nM vs complete and cholesterol-free medium
# Protocol: as §1
# On Day 1, cells were seeded at a density of around 7500 cells/well in a Corning 96-well flat bottom culture plate in complete media containing 10% FBS.
# On Day 5, spent media was discarded, and wells were stained with a crystal violet staining solution, washed and dried. 100 μL of 10% acetic acid was added to each well to release the crystal violet taken up by the cells. Plates were read using a Biotek Powerwave plate reader to determine the absorbance of the crystal violet released as an indicator of cell growth at a wavelength of 595 nm.
# Growth curves showing absorbance of crystal violet at 595 nm were plotted from test wells against the logarithmic concentration of the validation drug. FIG. 7A-7C show growth of cancer cell lines in the three media conditions subjected to increasing doses of isavuconazole (FIG. 7A), pitolisant (FIG. 7B), or toremifene (FIG. 7C) from the FDA screen under validation. For each of the drugs being validated, there is a strong ‘left-shift’ in the dose response curve for cells are grown in the cholesterol-free medium+simvastatin.
# [9] = system: HCC827 cells; assay: Drug validation, four media conditions; details: cholesterol-free and cholesterol-free+simvastatin media conditions
# Protocol: as §1, §2, §3, §4
# [10] = system: PC9 cells; assay: Drug validation, four media conditions; details: cholesterol-free medium+simvastatin compared to the other media conditions
# Protocol: as §1, §2, §3, §4
# [11] = NCI-H292 cells, cholesterol-free media without statin
# [12] = complete vs cholesterol-free media, greater than 0 enhanced anti-cancer activity, about 0 neutral, below 0 antagonists
# [13] = NCI-H292 cells, FDA drug library screen, cholesterol-free media with simvastatin 0.04 μM
# [14] = NCI-H292 cells, FDA drug library screen, complete media
# [15] = complete media minus cholesterol-free media + simvastatin, >0 enhanced anti-cancer activity, about 0 neutral, <0 antagonist
# [16] = cholesterol-free and cholesterol-free+simvastatin media conditions
# [17] = Complete minus Cholesterol-free, greater than 0 enhanced anti-cancer activity, about 0 neutral, below 0 antagonists
# [18] = NCI-H292 cells in cholesterol-free media without statin
# [19] = NCI-H292 cells in complete media
# [20] = Complete minus Cholesterol-free, >0 enhanced anti-cancer activity, about 0 neutral, <0 antagonist
# [21] = NCI-H292 cells, cholesterol-free media without statin, FDA drug library screen
# [22] = NCI-H292 cells, complete media, FDA drug library screen
# [23] = complete media vs cholesterol-free media + simvastatin (0.04 μM), >0 enhanced anti-cancer activity, about 0 neutral, <0 antagonist
compound,measurement,setting,value
"Cn1cc(-c2cc3c(N4CCN(c5ncc([C@@](C)(N)c6ccc(F)cc6)cn5)CC4)ncnn3c2)cn1 [avapritinib, reference compound]",Cholesterol-free,[1]; [11],0.9337
same,Complete,"[1]; NCI-H292 cells, complete media",0.6002
same,Difference,[1]; [12],−0.33
same,Cholesterol-free media + simvastatin (0.04 μM),[2]; [13],0.4436
same,Complete Media,[2]; [14],0.749
same,Difference,[2]; [15],0.31
same,anti-proliferative effect (dose-response curve shift) with lack of cholesterol,[3],enhanced
same,anti-proliferative effect (dose-response curve shift),[4],strong left-shift
same,anti-proliferative effect (dose-response curve shift),[5],strong left-shift
same,anti-proliferative effect (dose-response curve shift),[6],strong left-shift
CCN(CCCc1ccccc1)CCCc1ccccc1 [alverine citrate],anti-proliferative effect (dose-response curve shift),[4],enhanced
same,anti-proliferative effect (dose-response curve shift),[7]; cholesterol-free medium+simvastatin compared to the other media conditions,enhanced
Clc1ccc(CCCOCCCN2CCCCC2)cc1 [pitolisant],anti-proliferative effect of the drug (dose response curve shift),[8],strongly enhanced
same,activity (dose-response curve shift) with lack of cholesterol,[9],enhanced
same,activity (dose-response curve shift) with lack of cholesterol,[6]; [16],enhanced
same,activity (dose-response curve shift) with lack of cholesterol,[7]; [16],enhanced
"C[C@@H](c1nc(-c2ccc(C#N)cc2)cs1)[C@](O)(Cn1cncn1)c1cc(F)ccc1F [isavuconazole, reference compound]",Difference,[1]; [17],−0.83
same,Cholesterol-free,[1]; [18],1.746
same,Complete,[1]; [19],0.9126
same,Cholesterol-free media + simvastatin (0.04 μM),[2]; [13],0.5246
same,Complete Media,[2]; [14],0.9256
same,Difference,[2]; [15],0.40
same,anti-proliferative effect of the drug (dose response curve shift),[8],strongly enhanced
same,anti-proliferative effect (dose-response curve shift),[4],strong left-shift
same,anti-proliferative effect (dose-response curve shift),[10],strong left-shift
same,basal viability of treated cells,[6]; cholesterol-free medium+simvastatin relative to the other three media conditions,decreased basal viability
"CCCCCOc1ccccc1/C(=C\SC)n1ccnc1 [neticonazole, reference compound]",Difference,"[1]; Complete minus Cholesterol-free, greater than 0 enhanced anti-cancer activity, about 0 neutral, below 0 antagonist",−0.16
same,Cholesterol-free,"[1]; NCI-H292 cells, FDA drug library screen, cholesterol-free media without statin",0.9493
same,Complete,[1]; [14],0.7904
same,Complete Media,"[2]; NCI-H292 cells, FDA drug library screen, complete media, listed as Neticonazole",1.262
same,Difference,"[2]; complete media minus cholesterol-free media + simvastatin, >0 enhanced anti-cancer activity, about 0 neutral, <0 antagonist, listed as Neticonazole",0.90
same,anti-proliferative effect (dose-response curve shift),[4],strongly enhanced
same,anti-proliferative effect (dose-response curve shift),[10],strongly enhanced
same,anti-proliferative effect (dose-response curve shift),[6],strongly enhanced
NCCc1c[nH]cn1 [Histamine],Difference,[1]; [20],0.05
same,Cholesterol-free,[1]; [21],0.9318
same,Complete,[1]; [22],0.9813
same,Cholesterol-free media + simvastatin (0.04 μM),[2]; [13],1.15
same,Complete Media,[2]; [14],1.573
same,Difference,[2]; [15],0.42
O=C(O)[C@@H]1CCCN1 [L-Proline],Cholesterol-free,[1],1.37
same,Complete,[1],0.9909
same,Difference,[1],−0.38
same,Cholesterol-free media + simvastatin (0.04 μM),[2],1.794
same,Complete Media,[2],1.088
same,Difference,[2],−0.71
COc1ccc2c(c1)N(C[C@H](C)CN(C)C)c1ccccc1S2 [Levomepromazine],Difference,[1]; [20],0.01
same,Cholesterol-free,[1]; [21],0.8962
same,Complete,[1]; [22],0.9041
same,Cholesterol-free media + simvastatin (0.04 μM),[2]; [13],0.8554
same,Complete Media,[2]; [14],1.084
same,Difference,[2]; [15],0.23
"Cyclic somatostatin (AGCKNFFWKTFTSC; not fully specified (bridges); cysteine pairing not given here; UniProt P61278 103-116, looked up)",Difference,"[1]; Complete minus Cholesterol-free, […]",0.00
same,Cholesterol-free,[1]; [21],1.02
same,Complete,[1]; [22],1.023
same,Cholesterol-free media + simvastatin (0.04 μM),"[2]; NCI-H292 cells, cholesterol-free media with simvastatin 0.04 μM, FDA drug library screen (TABLE 2)",0.9769
same,Difference,"[2]; complete media minus cholesterol-free media + simvastatin (0.04 μM), […]",−0.04
NC(CO)C(=O)NNCc1ccc(O)c(O)c1O (centres unmarked) [Benserazide (hydrochloride)],Difference,[1]; [20],0.01
same,Cholesterol-free,[1]; [21],1.039
same,Complete,[1]; [22],1.047
same,Cholesterol-free media + simvastatin (0.04 μM),[2]; [13],1.132
same,Complete Media,[2]; [14],1.052
same,Difference,[2]; [23],−0.08
C[C@@H](NCCCc1cccc(C(F)(F)F)c1)c1cccc2ccccc12 [Cinacalcet (hydrochloride)],Cholesterol-free,[1]; [11],1.099
same,Complete,"[1]; NCI-H292 cells, complete media",0.7862
same,Difference,[1]; [12],−0.31
same,Cholesterol-free media + simvastatin (0.04 μM),"[2]; NCI-H292 cells, cholesterol-free media with simvastatin 0.04 μM, cell growth value in FDA drug screen",0.9304
same,Complete Media,"[2]; NCI-H292 cells, complete media, cell growth value in FDA drug screen",0.9877
same,Difference,[2]; [15],0.06
N#Cc1ccc(C2CCCc3cncn32)cc1 (centres unmarked) [Fadrozole],Cholesterol-free,[1],0.5349
same,Complete,[1],1.016
same,Difference,[1],0.48
same,Cholesterol-free media + simvastatin (0.04 μM),[2],1.426
same,Complete Media,[2],1.038
same,Difference,[2],−0.39
CCOc1ccc2ccccc2c1C(=O)N[C@@H]1C(=O)N2[C@@H]1SC(C)(C)[C@@H]2C(=O)O [Nafcillin (sodium monohydrate)],Difference,[1]; [17],−1.00
same,Cholesterol-free,[1]; [18],1.957
same,Complete,[1]; [19],0.9538
same,Cholesterol-free media + simvastatin (0.04 μM),[2]; [13],0.8693
same,Difference,[2]; [15],0.30
O=C(NC[C@H]1CN(c2ccc(N3CCOCC3=O)cc2)C(=O)O1)c1ccc(Cl)s1 [Rivaroxaban],Difference,[1]; [20],−0.30
same,Cholesterol-free,[1]; [11],1.076
same,Complete,"[1]; NCI-H292 cells, complete media",0.7773
same,Cholesterol-free media + simvastatin (0.04 μM),[2]; [13],1.199
same,Complete Media,[2]; [14],1.057
same,Difference,[2]; [23],−0.14
